Assays:
THP1-Blue ISG cells = assay: Human interferon-β induction assay; assay type: cell-based; settings: total cumulative IFN-β induction over the dose range tested (0.78 to 50 μM) in THP-1 Blue cells
Protocol: THP1-Blue ISG cells are used to measure the secretion of IFN-β into the culture supernatant following STING pathway activation. To run the assay, anti-IFN-β capture antibodies were coated on 96 well MultiArray plates (Mesoscale Discovery). After a one hour incubation, plates were washed and 50 μL supernatant from the STING human cell reporter assay plates or IFN-β standards were mixed with 20 μL Sulfotag-conjugated detection antibody in the coated plates. Plates were incubated, shaking for 2 h, washed, and read buffer was applied. Electrochemiluminescence was measured on the SectorImager.

human STING = human STING (Homo sapiens (Human), UniProt Q86WV6, H232R); assay: human STING SPA binding assay
Sequence of human STING (Q86WV6 139-379 H232R): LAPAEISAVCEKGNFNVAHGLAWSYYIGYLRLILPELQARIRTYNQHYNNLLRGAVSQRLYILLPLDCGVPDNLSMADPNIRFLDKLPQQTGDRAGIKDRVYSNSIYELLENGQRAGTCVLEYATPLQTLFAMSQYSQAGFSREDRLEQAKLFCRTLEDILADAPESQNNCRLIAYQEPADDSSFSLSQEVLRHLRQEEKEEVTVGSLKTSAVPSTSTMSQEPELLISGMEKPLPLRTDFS
Protocol: The HIS tag is cleaved after purification and prior to biotinylation.
Test compounds (80 nL) were added with an acoustic dispenser (EDC Biosystems) in 100% DMSO for a final assay concentration of 1% DMSO. Plates were centrifuged for 1 min and incubated for 60 min at room temperature. Finally, (2 μL) polystyrene streptavidin SPA beads (PerkinElmer RPNQ0306) were added and plates were sealed and centrifuged for 1 min at room temperature. Plates were dark adapted for 2 h and read on a ViewLux (Perkin Elmer) for 12 min per plate.

[1] = tested on: human STING pathway in THP1-ISG cells; assay: STING human cell reporter assay; assay type: cell-based; settings: SEAP reporter, 24 h
Protocol: Agonism of the human STING pathway is assessed in THP1-ISG cells (Invivogen, cat #thp-isg) derived from human THP1 monocyte cell line by stable integration of an interferon regulatory factor (IRF)-inducible SEAP reporter construct. THP1-Blue ISG cells express a secreted embryonic alkaline phosphatase (SEAP) reporter gene under the control of an ISG54 minimal promoter in conjunction with five interferon (IFN)-stimulated response elements. As a result, THP1-Blue ISG cells allow the monitoring of IRF activation by determining the activity of SEAP. The levels of IRF-induced SEAP in the cell culture supernatant are readily assessed with alkaline phosphatase detection medium, a SEAP detection reagent. These cells are resistant to Zeocin. […] To run the assay, 60,000 cells were dispensed in 30 μL/well of a white, opaque bottom tissue culture treated 384-well plate.
Test compounds were added in a volume of 10 μL (1% DMSO final concentration). Compounds are initially prepared in 100% DMSO, spotted on an intermediate dilution plate and then diluted in media prior to transfer. The assay was incubated for 24 h at 37° C., 5% CO2 then plates were centrifuged at 1200 rpm (120×g) for 5 min. […]

primary human PBMC = assay: PBMC activation, CD54 upregulation on monocytes by flow cytometry; assay type: cell-based; settings: 20 μM, 48 h, relative to resting cells
Protocol: Concurrently, PBMC were isolated as described previously. To stimulate the PBMC, 10,000,000 cells were dispensed into 400 μL/well of flat-bottom, tissue culture treated, 24-well plates. Test compounds were added in a volume of 100 μL, then the cultures were incubated for 48 h at 37° C., 5% CO2. Supernatants were harvested. Cells were measured for activation marker upregulation using flow cytometery. Briefly, cells were stained with fluorescently labeled antibodies directed to CD56, CD19, CD3, CD8a, CD14, CD69, CD54, CD161, CD4 and CD80. Samples were analyzed on an Attune N×T flow cytometer (Thermo Fisher, Carlsbad, Calif.)
PBMCs were stimulated with 20 μM of CDN for 48 h. Cells were assessed by flow cytometry for upregulation of CD54 on monocytes. The fold increase in Mean Fluoresence Intensity was calculated relative to the levels on resting cells. The data is an average of two independent donors.

| SMILES | human IFN-β (ranking value) (THP1-Blue ISG cells) | also measured |
| --- | --- | --- |
| COC1C2COP(=O)(S)OC3C(COP(=O)(S)OC1C(n1cnc4c(=O)[nH]c(N)nc41)O2)OC(n1cnc2c(N)ncnc21)C3F (single isomer, unassigned) [Compound 6b] | 904 |  |
| COC1C2COP(=O)(O)OC3C(COP(=O)(O)OC1C(n1cnc4c(=O)[nH]c(N)nc41)O2)OC(n1cnc2c(N)ncnc21)C3F (centres unmarked) [Compound 5] | 1024 |  |
| COC1C2COP(=O)(S)OC3C(COP(=O)(S)OC1C(n1cnc4c(=O)[nH]c(N)nc41)O2)OC(n1cnc2c(N)ncnc21)C3F (single isomer, unassigned) [Compound 6a] | 2427 |  |
| COC1C2COP(=O)(S)OC3C(COP(=O)(S)OC1C(n1cnc4c(=O)[nH]c(N)nc41)O2)OC(n1cnc2c(N)ncnc21)C3F (single isomer, unassigned) [Compound 6d] | 3039 |  |
| CC1(O)C2OP(=O)(O)OCC3OC(n4cnc5c(=O)[nH]c(N)nc54)C(OP(=O)(O)OCC2OC1n1cnc2c(N)ncnc21)C3O (centres unmarked) [Compound 1] |  | IC50 (human STING): 54.5 µM; EC50 [1]: 1.81 µM |
| COC1C2COP(=O)(S)OC3C(COP(=O)(S)OC1C(n1cnc4c(=O)[nH]c(N)nc41)O2)OC(n1cnc2c(N)ncnc21)C3F (single isomer, unassigned) [Compound 6c] | 4266 |  |
| Nc1nc2c(ncn2[C@@H]2O[C@@H]3COP(=O)(O)O[C@H]4[C@@H](O)[C@H](n5cnc6c(N)ncnc65)O[C@@H]4COP(=O)(O)O[C@@H]2[C@@H]3O)c(=O)[nH]1 [4-2′3′-cGAMP, (2′,3′)cyclic guanosine monophosphate-adenosine monophosphate] |  | MFI, fold increase of CD54 on monocytes (primary human PBMC): 4.5 |
